Consider 8 molecules from BindingDB's records for doi:10.1021/acsmedchemlett.8b00333 (University of Calabria, 2019).

For orientation: EC50 means the concentration at which the effect is half-maximal.

The nature of this experiment: Inverse agonist activity at GPR55 in human MDA-MB-231 cells assessed as reduction in cell viability incubated for 24 hrs by MTT assay. (In general: Formazan colour is commonly taken as a measure of viable cells.)
As for `O=C1C(Cl)=C(N2CCCCC2)C(=O)c2c(O)ccc(O)c21`, the EC50 was determined as 1.6 µM.

Take `CCN(CC)C1=C(Cl)C(=O)c2c(O)ccc(O)c2C1=O`: the concentration for a half-maximal effect (EC50) was above 20 µM.

`CCCCN(CCCC)C1=C(Cl)C(=O)c2c(O)ccc(O)c2C1=O`: the EC50 was above 20 µM.

Regarding `COc1ccc(OC)c2c1C(=O)C(Cl)=C(N1CCCCC1)C2=O`, the 50% effective concentration (EC50) was above 10 µM.

On to `COc1ccc(OC)c2c1C(=O)C(Cl)=C(N1CCOCC1)C2=O`, for which the EC50 was above 10 µM.

In the case of `O=C1C(Cl)=C(N2CCCC2)C(=O)c2c(O)ccc(O)c21`, the EC50 is above 10 µM.

`O=C1C(Cl)=C(N2CCOCC2)C(=O)c2c(O)ccc(O)c21`: the 50% effective concentration (EC50) was determined as 2.7 µM.

Turning to `COc1ccc(OC)c2c1C(=O)C(Cl)=C(Cl)C2=O` [2,3-Dichloro-5,8-dimethoxy-[1,4]naphthoquinone], the EC50 was above 20 µM.
